Values after ≈ are worked out from the molar mass of the structure shown.
What was measured:
[1] = Oral bioavailability in C57BL/6 mouse at 5 mg/kg by LC-MS/MS analysis; assay type: ADME, organism-based; settings: in vivo
[2] = Cmax/dose in C57BL/6 mouse at 5 mg/kg, po by LC-MS/MS analysis; assay type: ADME, organism-based; settings: in vivo
[3] = physchem; settings: octanol/water
Description: Distribution coefficient, logD of the compound

[4] = Volume of distribution at steady state in Sprague-Dawley rat at 1 mg/kg, iv by LC-MS/MS analysis; assay type: ADME, organism-based; settings: in vivo, read-out: Vdss
[5] = AUC/dose in cynomolgus monkey at 0.3 mg/kg, iv by LC-MS/MS analysis; assay type: ADME, organism-based, Macaca fascicularis; settings: in vivo
[6] = physchem; settings: aqueous, pH 6.8
Description: Aqueous solubility of the compound at pH 6.8

[7] = Tmax in C57BL/6 mouse at 5 mg/kg, po by LC-MS/MS analysis; assay type: ADME, organism-based; settings: in vivo
[8] = AUC/dose in Sprague-Dawley rat at 1 mg/kg, iv by LC-MS/MS analysis; assay type: ADME, organism-based; settings: in vivo
[9] = AUC/dose in cynomolgus monkey at 1 mg/kg, po by LC-MS/MS analysis; assay type: ADME, organism-based, Macaca fascicularis; settings: in vivo
[10] = Oral bioavailability in Sprague-Dawley rat at 5 mg/kg by LC-MS/MS analysis; assay type: ADME, organism-based; settings: in vivo
[11] = Oral bioavailability in cynomolgus monkey at 1 mg/kg by LC-MS/MS analysis; assay type: ADME, organism-based, Macaca fascicularis; settings: in vivo
[12] = Volume of distribution at steady state in beagle dog at 0.2 mg/kg, iv by LC-MS/MS analysis; assay type: ADME, organism-based, Canis lupus familiaris; settings: in vivo, read-out: Vdss
[13] = Protein binding in C57BL/6 mouse plasma; assay type: ADME, cell-free; settings: read-out: PPB (converted)
[14] = AUC/dose in beagle dog at 0.2 mg/kg, iv by LC-MS/MS analysis; assay type: ADME, organism-based, Canis lupus familiaris; settings: in vivo
[15] = Volume of distribution at steady state in cynomolgus monkey at 0.3 mg/kg, iv by LC-MS/MS analysis; assay type: ADME, organism-based, Macaca fascicularis; settings: in vivo, read-out: Vdss
[16] = Cmax/dose in Sprague-Dawley rat at 5 mg/kg, po by LC-MS/MS analysis; assay type: ADME, organism-based; settings: in vivo
[17] = Clearance in Sprague-Dawley rat at 1 mg/kg, iv by LC-MS/MS analysis; assay type: ADME, organism-based; settings: in vivo
[18] = biological target: Voltage-gated inwardly rectifying potassium channel KCNH2 (Homo sapiens, UniProt Q12809)
Sequence of Voltage-gated inwardly rectifying potassium channel KCNH2 (Q12809 whole entry): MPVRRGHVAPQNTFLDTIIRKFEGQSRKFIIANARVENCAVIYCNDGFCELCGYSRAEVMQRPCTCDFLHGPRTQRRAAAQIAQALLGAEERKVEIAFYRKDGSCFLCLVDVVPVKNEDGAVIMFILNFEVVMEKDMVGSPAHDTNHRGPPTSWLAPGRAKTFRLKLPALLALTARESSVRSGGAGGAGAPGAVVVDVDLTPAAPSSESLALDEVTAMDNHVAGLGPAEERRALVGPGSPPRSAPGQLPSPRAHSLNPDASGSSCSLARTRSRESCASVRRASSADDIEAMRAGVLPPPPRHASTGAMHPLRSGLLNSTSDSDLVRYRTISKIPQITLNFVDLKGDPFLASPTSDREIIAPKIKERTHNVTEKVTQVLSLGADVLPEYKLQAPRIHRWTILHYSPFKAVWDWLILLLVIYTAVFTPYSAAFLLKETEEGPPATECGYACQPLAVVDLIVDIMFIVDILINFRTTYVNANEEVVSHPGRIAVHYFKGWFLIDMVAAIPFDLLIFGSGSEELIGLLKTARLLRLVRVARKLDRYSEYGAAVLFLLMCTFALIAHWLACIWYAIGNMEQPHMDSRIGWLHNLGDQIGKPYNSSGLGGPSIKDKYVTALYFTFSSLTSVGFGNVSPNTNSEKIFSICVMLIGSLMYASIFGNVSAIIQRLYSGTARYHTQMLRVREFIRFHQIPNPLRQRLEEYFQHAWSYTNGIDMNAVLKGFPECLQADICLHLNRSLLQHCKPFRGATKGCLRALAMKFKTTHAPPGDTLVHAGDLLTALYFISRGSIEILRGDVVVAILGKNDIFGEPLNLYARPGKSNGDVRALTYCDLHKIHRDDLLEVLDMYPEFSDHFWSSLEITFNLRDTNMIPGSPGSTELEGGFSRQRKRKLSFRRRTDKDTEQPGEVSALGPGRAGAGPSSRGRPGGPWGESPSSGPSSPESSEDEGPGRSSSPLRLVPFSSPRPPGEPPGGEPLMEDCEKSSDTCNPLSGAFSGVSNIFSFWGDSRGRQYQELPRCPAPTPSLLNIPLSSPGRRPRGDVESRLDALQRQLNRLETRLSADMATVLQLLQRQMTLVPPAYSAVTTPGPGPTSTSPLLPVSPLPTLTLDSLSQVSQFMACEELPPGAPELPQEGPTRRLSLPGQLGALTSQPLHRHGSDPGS
Description: Inhibition of human ERG by Q-patch assay

[19] = Tmax in Sprague-Dawley rat at 5 mg/kg, po by LC-MS/MS analysis; assay type: ADME, organism-based; settings: in vivo
[20] = biological target: Cytochrome P450 2D6 (Homo sapiens, UniProt P10635); experiment: Inhibition of CYP2D6 (unknown origin); assay type: ADME
Sequence of Cytochrome P450 2D6 (P10635 whole entry): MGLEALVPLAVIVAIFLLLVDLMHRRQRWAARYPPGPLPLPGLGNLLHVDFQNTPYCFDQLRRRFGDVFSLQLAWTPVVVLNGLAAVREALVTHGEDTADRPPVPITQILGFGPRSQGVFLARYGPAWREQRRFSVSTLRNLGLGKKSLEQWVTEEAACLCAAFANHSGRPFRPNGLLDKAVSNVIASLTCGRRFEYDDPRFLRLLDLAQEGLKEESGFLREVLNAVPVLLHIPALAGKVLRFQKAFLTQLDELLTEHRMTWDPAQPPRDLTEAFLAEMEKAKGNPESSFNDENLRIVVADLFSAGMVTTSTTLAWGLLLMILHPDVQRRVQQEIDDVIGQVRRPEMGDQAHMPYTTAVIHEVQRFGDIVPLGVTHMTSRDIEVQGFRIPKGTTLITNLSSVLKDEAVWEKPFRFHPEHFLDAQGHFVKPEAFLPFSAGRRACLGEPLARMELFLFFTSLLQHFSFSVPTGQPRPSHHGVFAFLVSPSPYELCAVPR

[21] = Volume of distribution at steady state in C57BL/6 mouse at 1 mg/kg, iv by LC-MS/MS analysis; assay type: ADME, organism-based; settings: in vivo, read-out: Vdss
[22] = AUC/dose in C57BL/6 mouse at 5 mg/kg, po by LC-MS/MS analysis; assay type: ADME, organism-based; settings: in vivo
[23] = Tmax in beagle dog at 1 mg/kg, po by LC-MS/MS analysis; assay type: ADME, organism-based, Canis lupus familiaris; settings: in vivo
[24] = biological target: Cytochrome P450 2C9 (Homo sapiens, UniProt P11712); experiment: Inhibition of CYP2C9 (unknown origin); assay type: ADME
Sequence of Cytochrome P450 2C9 (P11712 whole entry): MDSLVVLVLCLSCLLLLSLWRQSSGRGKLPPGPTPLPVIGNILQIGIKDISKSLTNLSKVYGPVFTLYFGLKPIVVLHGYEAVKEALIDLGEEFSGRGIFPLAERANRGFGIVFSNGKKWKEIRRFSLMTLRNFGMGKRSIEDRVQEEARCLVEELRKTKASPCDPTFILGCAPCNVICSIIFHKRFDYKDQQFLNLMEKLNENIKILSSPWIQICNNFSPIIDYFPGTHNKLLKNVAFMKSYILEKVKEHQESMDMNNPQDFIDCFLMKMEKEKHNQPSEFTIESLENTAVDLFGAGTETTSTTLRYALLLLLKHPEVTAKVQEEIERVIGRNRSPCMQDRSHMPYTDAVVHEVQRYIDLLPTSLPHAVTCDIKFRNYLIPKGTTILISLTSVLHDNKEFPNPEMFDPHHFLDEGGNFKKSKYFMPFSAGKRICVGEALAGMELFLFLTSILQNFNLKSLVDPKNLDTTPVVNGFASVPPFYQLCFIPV

[25] = Oral bioavailability in beagle dog at 1 mg/kg by LC-MS/MS analysis; assay type: ADME, organism-based, Canis lupus familiaris; settings: in vivo
[26] = Terminal half life in Sprague-Dawley rat at 1 mg/kg, iv by LC-MS/MS analysis; assay type: ADME, organism-based; settings: in vivo, read-out: beta t1/2 (converted)
[27] = Cmax/dose in cynomolgus monkey at 1 mg/kg, po by LC-MS/MS analysis; assay type: ADME, organism-based, Macaca fascicularis; settings: in vivo
[28] = AUC/dose in Sprague-Dawley rat at 5 mg/kg, po by LC-MS/MS analysis; assay type: ADME, organism-based; settings: in vivo
[29] = Protein binding in Sprague-Dawley rat plasma; assay type: ADME, cell-free; settings: read-out: PPB (converted)
[30] = AUC/dose in beagle dog at 1 mg/kg, po by LC-MS/MS analysis; assay type: ADME, organism-based, Canis lupus familiaris; settings: in vivo
[31] = tested on: KYSE-520 cell line; experiment: Antiproliferative activity against human KYSE-520 cells; assay type: functional, cell-based
[32] = biological target: Cytochrome P450 3A4 (Homo sapiens, UniProt P08684); experiment: Inhibition of CYP3A4 (unknown origin); assay type: ADME
Sequence of Cytochrome P450 3A4 (P08684 whole entry): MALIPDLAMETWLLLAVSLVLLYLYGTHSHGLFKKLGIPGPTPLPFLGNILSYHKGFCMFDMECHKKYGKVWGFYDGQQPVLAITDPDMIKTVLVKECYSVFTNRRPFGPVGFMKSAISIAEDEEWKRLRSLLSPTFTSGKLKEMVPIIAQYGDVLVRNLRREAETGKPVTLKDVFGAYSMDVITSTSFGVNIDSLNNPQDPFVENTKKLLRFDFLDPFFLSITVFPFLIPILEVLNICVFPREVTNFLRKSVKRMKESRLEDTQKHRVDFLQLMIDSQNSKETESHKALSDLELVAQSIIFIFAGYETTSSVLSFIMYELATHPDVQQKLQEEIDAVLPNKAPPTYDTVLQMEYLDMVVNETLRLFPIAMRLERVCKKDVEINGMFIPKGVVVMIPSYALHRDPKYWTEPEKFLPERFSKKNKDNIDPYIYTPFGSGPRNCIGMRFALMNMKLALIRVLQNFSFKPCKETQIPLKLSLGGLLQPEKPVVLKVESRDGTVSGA

[33] = Terminal half life in cynomolgus monkey at 0.3 mg/kg, iv by LC-MS/MS analysis; assay type: ADME, organism-based, Macaca fascicularis; settings: in vivo, read-out: beta t1/2 (converted)
[34] = Cmax/dose in beagle dog at 1 mg/kg, po by LC-MS/MS analysis; assay type: ADME, organism-based, Canis lupus familiaris; settings: in vivo
[35] = Toxicity in mouse 3T3 cells under irradiation by NRU phototoxicity test; assay type: cell-based
[36] = Terminal half life in beagle dog at 0.2 mg/kg, iv by LC-MS/MS analysis; assay type: ADME, organism-based, Canis lupus familiaris; settings: in vivo, read-out: beta t1/2 (converted)
[37] = Clearance in cynomolgus monkey at 0.3 mg/kg, iv by LC-MS/MS analysis; assay type: ADME, organism-based, Macaca fascicularis; settings: in vivo
[38] = AUC/dose in C57BL/6 mouse at 1 mg/kg, iv by LC-MS/MS analysis; assay type: ADME, organism-based; settings: in vivo
[39] = Toxicity in NU/NU mouse xenografted with human KYSE-520 cells assessed as induction of body weight loss eat 2.5 to 20 mg/kg, po BID for 2 weeks; assay type: organism-based; settings: in vivo, 336 h, dose 2.5-20 mg/kg
[40] = Terminal half life in C57BL/6 mouse at 1 mg/kg, iv by LC-MS/MS analysis; assay type: ADME, organism-based; settings: in vivo, read-out: beta t1/2 (converted)
[41] = Protein binding in cynomolgus monkey plasma; assay type: ADME, cell-free, Macaca fascicularis; settings: read-out: PPB (converted)
[42] = Tmax in cynomolgus monkey at 1 mg/kg, po by LC-MS/MS analysis; assay type: ADME, organism-based, Macaca fascicularis; settings: in vivo
[43] = physchem; settings: octanol/water; remark: listed apart in the source
Description: Lipophilicity, logP of the compound

[44] = Protein binding in beagle dog plasma; assay type: ADME, cell-free, Canis lupus familiaris; settings: read-out: PPB (converted)
[45] = Clearance in beagle dog at 0.2 mg/kg, iv by LC-MS/MS analysis; assay type: ADME, organism-based, Canis lupus familiaris; settings: in vivo
[46] = biological target: T1, Tyrosine-protein phosphatase non-receptor type 11 (Homo sapiens, UniProt Q06124); experiment: Allosteric inhibition of 6x-histidine tagged human SHP2 (Met1-L525 residues) expressed in Escherichia coli BL21 Star (DE3) using IRS1_pY1172(dPEG8)[…] incubated for 30 mins by fluorescence based DIFMUP assay
T1 sequence (Q06124 whole entry): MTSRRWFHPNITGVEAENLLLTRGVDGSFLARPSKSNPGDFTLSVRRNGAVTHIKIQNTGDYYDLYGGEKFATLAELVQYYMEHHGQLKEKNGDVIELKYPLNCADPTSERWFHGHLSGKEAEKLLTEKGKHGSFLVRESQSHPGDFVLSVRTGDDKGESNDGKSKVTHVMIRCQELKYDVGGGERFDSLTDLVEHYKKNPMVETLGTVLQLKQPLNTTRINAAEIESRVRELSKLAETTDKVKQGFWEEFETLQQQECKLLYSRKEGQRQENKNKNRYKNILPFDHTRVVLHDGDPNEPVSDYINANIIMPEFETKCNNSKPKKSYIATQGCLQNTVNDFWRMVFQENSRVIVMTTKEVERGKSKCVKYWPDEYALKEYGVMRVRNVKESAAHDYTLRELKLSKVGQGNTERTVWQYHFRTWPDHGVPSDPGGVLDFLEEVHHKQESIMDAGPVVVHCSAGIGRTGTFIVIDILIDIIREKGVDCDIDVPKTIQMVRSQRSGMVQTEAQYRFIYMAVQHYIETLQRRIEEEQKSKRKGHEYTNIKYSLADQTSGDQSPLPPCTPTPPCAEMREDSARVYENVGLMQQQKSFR

[47] = biological target: T1, Tyrosine-protein phosphatase non-receptor type 11
Description: Allosteric inhibition of human SHP2 in human KYSE-520 cells assessed as reduction in ERK1/2 phosphorylation by fluorescence based assay

[48] = tested on: NCI-H358; experiment: Antiproliferative activity against human NCI-H358 cells; assay type: functional, cell-based
[49] = biological target: T2, Tyrosine-protein phosphatase non-receptor type 11 (Homo sapiens) (UniProt Q06124); settings: filed as negative allosteric modulator
T2 sequence (whole entry): T1 sequence (Q06124 whole entry)

SMILES: C[C@@H]1OCC2(CCN(c3cnc(Sc4ccnc(N)c4Cl)c(N)n3)CC2)[C@@H]1N [BATOPROTAFIB]
- bioavailability [1]: 78%
- Cmax/dose [2]: 357 nM
- logD [3]: 0.6
- Vd [4]: 7 L/kg
- AUC/dose [5]: 6438 nM·h
- solubility [6]: 736 µM (≈ 311 µg/mL)
- Tmax [7]: 0.8 h
- AUC/dose [8]: 2407 nM·h
- AUC/dose [9]: 3848 nM·h
- bioavailability [10]: 100%
- bioavailability [11]: 60%
- Vd [12]: 3 L/kg
- fraction unbound [13]: 0.24
- AUC/dose [14]: 10690 nM·h
- Vd [15]: 4 L/kg
- Cmax/dose [16]: 657 nM
- clearance [17]: 15 mL/min/kg
- IC50 [18]: > 30 µM
- Tmax [19]: 1 h
- inhibition (INH) [20]: Not Active
- Vd [21]: 3 L/kg
- AUC/dose [22]: 1190 nM·h
- Tmax [23]: 2 h
- inhibition (INH) [24]: Not Active
- bioavailability [25]: > 100%
- half-life [26]: 8 h
- Cmax/dose [27]: 286 nM
- AUC/dose [28]: 2483 nM·h
- fraction unbound [29]: 0.19
- AUC/dose [30]: 15854 nM·h
- IC50 ([31]; kyse-520): 0.1 µM
- inhibition (INH) [32]: Not Active
- half-life [33]: 9 h
- Cmax/dose [34]: 1207 nM
- IC50 [35]: 666 µM
- half-life [36]: 9 h
- clearance [37]: 6 mL/min/kg
- AUC/dose [38]: 1530 nM·h
- Activity [39]: Non-Toxic
- half-life [40]: 2 h
- fraction unbound [41]: 0.39
- Tmax [42]: 2 h
- logP [43]: 1.6
- fraction unbound [44]: 0.36
- clearance [45]: 4 mL/min/kg

SMILES: CC1(N)CCN(c2cnc(Cc3cccc(Cl)c3Cl)c(N)n2)CC1
- IC50 [46]: 9.9 µM

SMILES: CC1(N)CCN(c2cnc(Sc3cccnc3C(F)(F)F)c(N)n2)CC1
- logD [3]: -0.5
- solubility [6]: 85 µM (≈ 32.7 µg/mL)
- IC50 [18]: 17.4 µM
- IC50 [46]: 0.067 µM
- IC50 [47]: 0.339 µM
- logP [43]: 2

SMILES: Nc1nc(N2CCC3(CCC[C@H]3N)CC2)cnc1Sc1ccnc(N)c1Cl
- logD [3]: -0.6
- solubility [6]: 561 µM (≈ 228 µg/mL)
- IC50 [18]: > 30 µM
- IC50 ([31]; Homo sapiens, KYSE-520): 0.123 µM
- IC50 [47]: 0.024 µM
- logP [43]: 2.2

SMILES: Nc1nc(N2CCC3(CCC[C@H]3N)CC2)cnc1Sc1cccnc1C(F)(F)F
- IC50 ([31]; Homo sapiens, KYSE-520): 1.16 µM

SMILES: C[C@H]1OCC2(CCN(c3cnc(Sc4ccnc(N)c4Cl)c(N)n3)CC2)[C@@H]1N
- solubility [6]: 382 µM (≈ 161 µg/mL)
- IC50 ([31]; kyse-520): 0.74 µM

SMILES: CC1(N)CCN(c2cnc(Sc3cccc(Cl)c3Cl)c(N)n2)CC1
- logD [3]: 1.1
- solubility [6]: 7 µM (≈ 2.69 µg/mL)
- IC50 [18]: 2.8 µM
- IC50 ([31]; kyse-520): 4.07 µM
- IC50 [35]: 16.2 µM
- IC50 [47]: 0.195 µM
- logP [43]: 3.6

SMILES: CC(=O)Nc1cccc(-n2c(=O)n(C3CC3)c(=O)c3c(Nc4ccc(I)cc4F)n(C)c(=O)c(C)c32)c1 [TRAMETINIB]
- IC50 ([31]; Homo sapiens, KYSE-520): 0.01 µM

SMILES: C=CC(=O)N1CCN(c2nc(=O)n(-c3c(C)ccnc3C(C)C)c3nc(-c4c(O)cccc4F)c(F)cc23)[C@@H](C)C1 [SOTORASIB]
- IC50 [48]: < 0.03 µM

SMILES: Nc1nc2ccc(Sc3cccc(Cl)c3Cl)nc2[nH]1
- ΔTm [49]: 1.5 °C

SMILES: CC1(CN)CCN(c2cnc(Sc3cccnc3C(F)(F)F)c(N)n2)CC1
- IC50 ([31]; Homo sapiens, KYSE-520): 4.05 µM

Source: ChEMBL document CHEMBL4699491, “Identification of TNO155, an Allosteric SHP2 Inhibitor for the Treatment of Cancer” (J Med Chem, 2020)
